In patent US20050256132A1, “Use of ER selective NF-kB inhibitors for the treatment of sepsis” (priority 2003, published 2005):

Tests used:
ER/IL-6 = experiment: Endothelial Cell ER/IL-6 Assay, IL-6 promoter luciferase (Table 2); format: cell-based, human; conditions: Homo sapiens, HAECT1, ERα infected HAECT-1 cells, IL-1β; for Emax: read-out: IL6 luc % Efficacy; for IC50: read-out: IL6 luc IC50
Experimental: T-175 flasks of 100% confluent HAECT-1 cells (immortalized human aortic endothelial cells) were washed with 8 ml of HBSS (HEPES buffered saline solution) and infected for fours hours with 6 ml of a 1:10 dilution of Ad5-wt-hERα virus (an adenovirus transfection vector that mediates CMV promoter driven expression of human ERα) in phenol red free Endothelial Cell Basal medium (Clonetics, San Diego, Calif., Catalog # CC-3129) containing 0.25% bovine serum albumin (EDM-BSA). After four hours, cells were washed with EDM-BSA and incubated overnight in the same medium. Following overnight incubation, cells were washed with EDM-BSA and infected for 2 hours with 6 ml of a 1:10 dilution of Ad5-3x(NFκB).Luc virus (Adenovirus luciferase expression vector driven by three repeats of the MHC NFκb sites 5′ to the thymidine kinase promoter) in EDM-BSA. After two hours, cells were washed and incubated at 34° C. for one hour. Cells were then washed, trypsinized, counted, and resuspended in 95% FBS/5% dimethylsulfoxide at a concentration of […], frozen as 1 or 5 ml aliquots in cryo-vials and stored at −150° C. Control (no ER infection) cells were processed as above without Ad5-wt-hERα virus infection.
ERα infected HAECT-1 cells or control cells were thawed, diluted 42× in warm EBM-BSA, plated into 96-well plates at 0.1 ml/well and incubated for 4 hours at 34° C. Test compounds were added to the cells at 2× stocks in EBM-BSA containing 2 ng/ml IL-1β Ad6-IL-6(1250 bp).Luc virus and plates were returned to the incubator (34° C.). After […], cells were lysed with 50 μl of Promega Cell Culture Lysis reagenet for about 5 minutes at room temperature on a shaker. After lysing, 15 μl of lysate is transferred to luminometer plates for luciferase determination. Luciferase activity is evaluated using a Perkin Elmer Victor2 1420 multilabel counter. Creatine kinase was determined from the rate of increase in A340 following addition of 100 μl of CK assay reagent (Sigma catalog no. 47-10) to the remainder of the cell lysate.
For IC50 and EC50 calculations, mean IL-6, luciferase or CK values versus log10 of the compound concentration were fitted to a four parameter logistic equation. The IC50/EC50 value, ‘Hill slope,’ upper and lower limits of the curve were iteratively estimated.

IC50 (ER/IL-6)	melting point	Structure (SMILES)	Emax (ER/IL-6)
0.069 µM	228 to 230 °C (dec.)	COC(=O)[C@@](C#N)(Cc1ccncc1)[C@H](c1ccccc1OC)c1cccc2ccccc12 (relative stereo) [Example 142, Methyl (2S*,3S*)-2-cyano-3-(2-methoxyphenyl)-3-(1-naphthyl)-2-(pyridin-4-ylmethyl)propanoate]	103%
–	160 to 164.4 °C	COC(=O)[C@@](C#N)(Cc1cccnc1)[C@H](c1ccccc1OC)c1cccc2ccccc12 (relative stereo) [Example 145, Methyl (2S*,3S*)-2-cyano-3-(2-methoxyphenyl)-3-(1-naphthyl)-2-(pyridin-3-ylmethyl)propanoate]	102%
0.0055 µM	132.9 to 134.4 °C	COC(=O)[C@@](C#N)(COCc1ccccc1)[C@H](c1ccccc1OC)c1cccc2ccccc12 (relative stereo) [Example 146, Methyl (2S*,3S*)-2-[(benzyloxy)methyl]-2-cyano-3-(2-methoxyphenyl)-3-(1-naphthyl)propanoate]	135%
0.018 µM	163 to 165.3 °C	COC[C@](C#N)(C(=O)OC(C)(C)C)[C@H](c1ccccc1OC)c1cccc2ccccc12 (relative stereo) [Example 149, tert-Butyl (2S*,3S*)-2-cyano-2-(methoxymethyl)-3-(2-methoxyphenyl)-3-(1-naphthyl)propanoate]	102%
0.006 µM	166 to 170 °C	COc1ccccc1[C@H](c1cccc2ccccc12)[C@](C#N)(COCc1ccccc1)C(=O)OC(C)(C)C (relative stereo) [Example 154, tert-Butyl (2S*,3S*)-2-[(benzyloxy)methyl]-2-cyano-3-(2-methoxyphenyl)-3-(1-naphthyl)propanoate]	87%
0.334 µM	192 to 193 °C	COc1ccccc1[C@@H](c1cccc2ccccc12)[C@](C#N)(COCc1ccccc1)C(=O)N1CCN(CCCN(C)C)CC1 (relative stereo) [Example 205, (2S*)-2-[(benzyloxy)methyl]-3-{4-[3-(dimethylamino)propyl]piperazin-1-yl}-2-[(R*)-(2-methoxyphenyl)(1-naphthyl)methyl]-3-oxopropanenitrile]	58%
0.206 µM	142 to 144 °C	COc1ccccc1[C@H](c1cccc2ccccc12)[C@@](C)(C#N)C(=O)N1CCN(c2ccncc2)CC1 [Example 133, (2S,3S)-3-(2-methoxyphenyl)-2-methyl-3-(1-naphthyl)-2-[(4-pyridin-4-ylpiperazin-1-yl)carbonyl]propanenitrile]	81%
0.612 µM	265 to 267 °C	COc1ccccc1[C@H](c1cccc2ccccc12)[C@@](C)(C#N)C(=O)N1CCC(N2C(=O)CCc3ccccc32)CC1 [Example 134, (2S,3S)-3-(2-methoxyphenyl)-2-methyl-3-(1-naphthyl)-2-{[4-(2-oxo-3,4-dihydroquinolin-1(2H)-yl)piperidin-1-yl]carbonyl}propanenitrile]	85%
0.065 µM	136 to 139 °C	COc1ccccc1[C@H](c1cccc2ccccc12)[C@@](C)(C#N)C(=O)N1CC=C(c2ccc(Br)cc2)CC1 [Example 135, (2S)-3-[4-(4-bromophenyl)-3,6-dihydropyridin-1(2H)-yl]-2-[(S)-(2-methoxyphenyl)(1-naphthyl)methyl]-2-methyl-3-oxopropanenitrile]	119%
0.063 µM	158 to 162 °C	COc1ccccc1[C@H](c1cccc2ccccc12)[C@@](C)(C#N)C(=O)N1CCN(c2cccc(C(F)(F)F)c2)CC1 [Example 136, (2S,3S)-3-(2-methoxyphenyl)-2-methyl-3-(1-naphthyl)-2-({4-[3-(trifluoromethyl)phenyl]piperazin-1-yl}carbonyl)propanenitrile]	142%
0.113 µM	160 to 165 °C	COc1ccccc1[C@H](c1cccc2ccccc12)[C@@](C)(C#N)C(=O)N1CCC(C2CCCC(C(F)(F)F)C2)CC1 (stereo partly drawn) [Example 139, (2S,3S)-3-(2-methoxyphenyl)-2-methyl-3-(1-naphthyl)-2-({4-[3-(trifluoromethyl)cyclohexyl]piperidin-1-yl}carbonyl)propanenitrile]	98%
–	176 to 178 °C	COC[C@](C#N)(C(=O)OC)[C@H](c1ccccc1OC)c1cccc2ccccc12 [Example 150, Methyl (2S,3S)-2-cyano-2-(methoxymethyl)-3-(2-methoxyphenyl)-3-(1-naphthyl)propanoate]	–
–	193 °C (dec.)	COC(=O)[C@@](C#N)(Cc1cccnc1)[C@H](c1ccccc1OC)c1cccc2ccccc12 [Example 156, Methyl (2S,3S)-2-cyano-3-(2-methoxyphenyl)-3-(1-naphthyl)-2-(pyridin-3-ylmethyl)propanoate]	73%
0.798 µM	163 to 165 °C	COc1ccccc1C(c1ccnc2ccccc12)C(C)(C#N)C(=O)N1CCC(c2cccc(C(F)(F)F)c2)CC1 (stereo not shown) [Example 161, 3-(2-Methoxyphenyl)-2-methyl-3-quinolin-4-yl-2-({4-[3-(trifluoromethyl)phenyl]piperidin-1-yl}carbonyl)propanenitrile]	122%
0.045 µM	229 to 231 °C	COc1ccccc1[C@H](c1cccc2ccccc12)[C@@](C)(C#N)C(=O)N1CC=C(c2c[nH]c3ccccc23)CC1 [Example 182, (2S)-3-[4-(1H-indol-3-yl)-3,6-dihydropyridin-1(2H)-yl]-2-[(s)-(2-methoxyphenyl)(1-naphthyl)methyl]-2-methyl-3-oxopropanenitrile]	74%
0.445 µM	176 to 178 °C	COc1ccccc1[C@H](c1cccc2ccccc12)[C@@](C)(C#N)C(=O)N1CCC2(CC1)C(=O)NCN2c1ccccc1 [Example 184, (2S,3S)-3-(2-methoxyphenyl)-2-methyl-3-(1-naphthyl)-2-[(4-oxo-1-phenyl-1,3,8-triazaspiro[4.5]dec-8-yl)carbonyl]propanenitrile]	88%
0.288 µM	259 °C	COc1ccccc1[C@H](c1cccc2ccccc12)[C@@](C)(C#N)C(=O)N1CCC(c2cccc(C(F)(F)F)c2)C(O)C1 (stereo partly drawn) [Example 185, (2S)-3-{3-hydroxy-4-[3-(trifluoromethyl)phenyl]piperidin-1-yl}-2-[(S)-(2-methoxyphenyl)(1-naphthyl)methyl]-2-methyl-3-oxopropanenitrile]	116%
0.348 µM	172 to 174 °C	COc1ccccc1[C@H](c1cccc2ccccc12)[C@@](C)(C#N)C(=O)N1CCc2[nH]c3ccc(F)cc3c2C1 [Example 189, (2S)-3-(8-fluoro-1,3,4,5-tetrahydro-2H-pyrido[4,3-b]indol-2-yl)-2-[(S)-(2-methoxyphenyl)(1-naphthyl)methyl]-2-methyl-3-oxopropanenitrile]	103%
0.113 µM	212 to 213 °C	COc1ccccc1[C@H](c1cccc2ccccc12)[C@@](C)(C#N)C(=O)N1CCc2c([nH]c3ccccc23)C1 [Example 190, (2S,3S)-3-(2-methoxyphenyl)-2-methyl-3-(1-naphthyl)-2-(1,3,4,9-tetrahydro-2H-beta-carbolin-2-ylcarbonyl)propanenitrile]	–
